Measured values: patent US6313153A, “Compositions and methods for treating nephritis and inhibiting TGF -β related conditions using pyridylacrylamide derivatives” (Tsumura & Co., priority 1997, dated 2001)

System: anti-GBM nephritic mice
Assay: anti-GBM nephritic mice: proteinuria, serum cholesterol, blood urea nitrogen and serum creatinine;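 as to Proteinuria 10th day: minus not effective plus trend double p<0.05 triple p<0.01 quadruple p<0.001 improvement vs control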;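 as to Proteinuria 5th day: minus not effective plus trend double p<0.05 triple p<0.01 quadruple p<0.001 improvement vs control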;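 as to Serum Parameter BUN (blood urea nitrogen): minus not effective plus trend double p<0.05 triple p<0.01 quadruple p<0.001 improvement vs control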;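 as to Serum Parameter S-Ch (serum cholesterol): minus not effective plus trend double p<0.05 triple p<0.01 quadruple p<0.001 improvement vs control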
Assay type: in vivo, BALB/c mice
Conditions: for Total Evaluation: 3 × (number of + in proteinuria) + (number of + in serum parameter); for Proteinuria 5th day: 5th day from intravenous injection of anti-GBM serum; for Proteinuria 5th day / Proteinuria 10th day / Serum Parameter BUN (blood urea nitrogen) / Serum Parameter S-Ch (serum cholesterol) / Serum Parameter S-Cr (serum creatinine): oral; for Proteinuria 10th day: 10th day from intravenous injection of anti-GBM serum; for Serum Parameter BUN (blood urea nitrogen) / Serum Parameter S-Ch (serum cholesterol) / Serum Parameter S-Cr (serum creatinine): 11th day
Method: BALB/c mice (5 weeks old, purchased from Nippon Charles Liver) were quarantined and adapted for about 1 week before subjecting to experiments. These mice were divided into several groups for the experiments so that average body weights and standard deviations were almost identical in all groups. Mouse anti-GBM (glomerular basement membrane) nephritis was caused by immunizing the mice with rabbit γ-globulin (1 mg) with Freund's complete adjuvant and intravenously injecting rabbit anti-mouse GBM serum on the fifth day from the immunization. Each compound tested was forcedly orally administered via an oral sonde almost simultaneously with the intravenous injection of the anti-GBM serum. On the 5th and 10th days from the intravenous injection, urine was taken by a plastic metabolic cage and proteinuria was measured (Ohtsuka Tonein TP2). On the 11th day, blood was taken by cutting the carotid and serum cholesterol (S--Ch), blood urea nitrogen (BUN) and serum creatinine (S--Cr) were measured by Toshiba TBA-380 autoanalyzer.

Cl.N#C/C(=C\c1cccnc1)C(=O)NCCc1ccc(O)cc1 [Compound 6, (E)-2-cyano-N-(4-hydroxyphenethyl)-3-(3-pyridyl)-2-propenoic acid amide hydrochloride]
Total Evaluation: 16
Proteinuria 5th day: ++
Proteinuria 10th day: +++
Serum Parameter BUN (blood urea nitrogen): -
Serum Parameter S-Ch (serum cholesterol): +
Serum Parameter S-Cr (serum creatinine): -

N#C/C(=C\c1cccnc1)C(=O)NCCc1cccc(O)c1 [Compound 8]
Total Evaluation: 6
Proteinuria 5th day: -
Proteinuria 10th day: ++
Serum Parameter BUN (blood urea nitrogen): -
Serum Parameter S-Ch (serum cholesterol): -
Serum Parameter S-Cr (serum creatinine): -

COc1cc(CCN(C)C(=O)/C=C/c2cccnc2)cc(OC)c1OC.Cl [Compound 9, (E)-N-methyl-3-(3-pyridyl)-N-(3,4,5-trimethoxyphenethyl)-2-propenoic acid amide hydrochloride]
Total Evaluation: 12
Proteinuria 5th day: +
Proteinuria 10th day: ++
Serum Parameter BUN (blood urea nitrogen): +
Serum Parameter S-Ch (serum cholesterol): +
Serum Parameter S-Cr (serum creatinine): +

COc1cccc(CCN(C)C(=O)/C=C/c2cccnc2)c1OC [Compound 13]
Total Evaluation: 13
Proteinuria 5th day: +
Proteinuria 10th day: +++
Serum Parameter BUN (blood urea nitrogen): +
Serum Parameter S-Ch (serum cholesterol): -
Serum Parameter S-Cr (serum creatinine): +

COc1ccc(CCN(C)C(=O)/C=C/c2cccnc2)c(OC)c1 [Compound 14]
Total Evaluation: 7
Proteinuria 5th day: -
Proteinuria 10th day: +
Serum Parameter BUN (blood urea nitrogen): +
Serum Parameter S-Ch (serum cholesterol): +
Serum Parameter S-Cr (serum creatinine): -

COc1ccc(OC)c(CCN(C)C(=O)/C=C/c2cccnc2)c1 [Compound 15]
Total Evaluation: 11
Proteinuria 5th day: +
Proteinuria 10th day: +
Serum Parameter BUN (blood urea nitrogen): +
Serum Parameter S-Ch (serum cholesterol): +
Serum Parameter S-Cr (serum creatinine): +

COc1cc(CCN(C)C(=O)/C=C/c2cccnc2)cc(OC)c1 [Compound 18]
Total Evaluation: 13
Proteinuria 5th day: +
Proteinuria 10th day: ++
Serum Parameter BUN (blood urea nitrogen): ++
Serum Parameter S-Ch (serum cholesterol): ++
Serum Parameter S-Cr (serum creatinine): -

COc1ccc(CN(C)C(=O)/C=C/c2cccnc2)cc1OC [Compound 20]
Total Evaluation: 13
Proteinuria 5th day: ++
Proteinuria 10th day: +
Serum Parameter BUN (blood urea nitrogen): +
Serum Parameter S-Ch (serum cholesterol): +
Serum Parameter S-Cr (serum creatinine): ++

CN(CCc1ccc(Cl)c(Cl)c1)C(=O)/C=C/c1cccnc1 [Compound 25]
Total Evaluation: 13
Proteinuria 5th day: +
Proteinuria 10th day: ++
Serum Parameter BUN (blood urea nitrogen): +
Serum Parameter S-Ch (serum cholesterol): +++
Serum Parameter S-Cr (serum creatinine): +

O=C(/C=C/c1cccnc1)NCCc1ccccc1O [Compound 38]
Total Evaluation: 19
Proteinuria 5th day: ++
Proteinuria 10th day: +++
Serum Parameter BUN (blood urea nitrogen): +
Serum Parameter S-Ch (serum cholesterol): ++
Serum Parameter S-Cr (serum creatinine): +

COc1ccc(OC)c(CCNC(=O)/C=C/c2cccnc2)c1 [Compound 39]
Total Evaluation: 21
Proteinuria 5th day: ++
Proteinuria 10th day: +++
Serum Parameter BUN (blood urea nitrogen): ++
Serum Parameter S-Ch (serum cholesterol): ++
Serum Parameter S-Cr (serum creatinine): ++

COc1cccc(CCNC(=O)/C=C/c2cccnc2)c1 [Compound 41]
Total Evaluation: 8
Proteinuria 5th day: +
Proteinuria 10th day: -
Serum Parameter BUN (blood urea nitrogen): -
Serum Parameter S-Ch (serum cholesterol): +++
Serum Parameter S-Cr (serum creatinine): ++

COc1cccc(CNC(=O)/C=C/c2cccnc2)c1 [Compound 42]
Total Evaluation: 9
Proteinuria 5th day: +
Proteinuria 10th day: +
Serum Parameter BUN (blood urea nitrogen): +
Serum Parameter S-Ch (serum cholesterol): -
Serum Parameter S-Cr (serum creatinine): ++

O=C(/C=C/c1cccnc1)NCc1ccc(O)cc1 [Compound 45]
Total Evaluation: 10
Proteinuria 5th day: ++
Proteinuria 10th day: +
Serum Parameter BUN (blood urea nitrogen): -
Serum Parameter S-Ch (serum cholesterol): +
Serum Parameter S-Cr (serum creatinine): -

COc1ccc(O)c(CCNC(=O)/C=C/c2cccnc2)c1 [Compound 50]
Total Evaluation: 18
Proteinuria 5th day: ++
Proteinuria 10th day: +++
Serum Parameter BUN (blood urea nitrogen): -
Serum Parameter S-Ch (serum cholesterol): +++
Serum Parameter S-Cr (serum creatinine): -

CN(CCc1ccc(-c2ccccc2)cc1)C(=O)/C=C/c1cccnc1 [Compound 52]
Total Evaluation: 10
Proteinuria 5th day: +
Proteinuria 10th day: +
Serum Parameter BUN (blood urea nitrogen): +
Serum Parameter S-Ch (serum cholesterol): +
Serum Parameter S-Cr (serum creatinine): ++

CSc1ccc(CCN(C)C(=O)/C=C/c2cccnc2)cc1 [Compound 53]
Total Evaluation: 6
Proteinuria 5th day: -
Proteinuria 10th day: +
Serum Parameter BUN (blood urea nitrogen): -
Serum Parameter S-Ch (serum cholesterol): -
Serum Parameter S-Cr (serum creatinine): +++

O=C(/C=C/c1cccnc1)NCCc1ccccc1O [Compound 70, (E)-N-(2-hydroxyphenethyl)-3-(3-pyridyl)-2-propenoic acid amide]
Total Evaluation: 22
Proteinuria 5th day: ++
Proteinuria 10th day: +++
Serum Parameter BUN (blood urea nitrogen): ++
Serum Parameter S-Ch (serum cholesterol): +++
Serum Parameter S-Cr (serum creatinine): ++

O=C(/C=C/c1cccnc1)NCCc1ccc(O)cc1 [Compound 71]
Total Evaluation: 17
Proteinuria 5th day: +
Proteinuria 10th day: +++
Serum Parameter BUN (blood urea nitrogen): ++
Serum Parameter S-Ch (serum cholesterol): -
Serum Parameter S-Cr (serum creatinine): ++

O=C(/C=C/c1cccnc1)NCCc1cccc(O)c1 [Compound 75]
Total Evaluation: 19
Proteinuria 5th day: ++
Proteinuria 10th day: +++
Serum Parameter BUN (blood urea nitrogen): +
Serum Parameter S-Ch (serum cholesterol): ++
Serum Parameter S-Cr (serum creatinine): +

CN(CCc1ccc(O)c(O)c1)C(=O)/C=C/c1cccnc1 [Compound 85, (E)-N-(3,4-dihydroxyphenethyl)-N-methyl-3-(3-pyridyl)-2-propenoic acid amide]
Total Evaluation: 21
Proteinuria 5th day: +++
Proteinuria 10th day: +++
Serum Parameter BUN (blood urea nitrogen): +
Serum Parameter S-Ch (serum cholesterol): ++
Serum Parameter S-Cr (serum creatinine): -

CN(CCc1ccc(O)cc1)C(=O)/C=C/c1cccnc1 [Compound 87]
Total Evaluation: 19
Proteinuria 5th day: +++
Proteinuria 10th day: +
Serum Parameter BUN (blood urea nitrogen): +++
Serum Parameter S-Ch (serum cholesterol): ++
Serum Parameter S-Cr (serum creatinine): ++

O=C(/C=C/c1cccnc1)NCCc1cc(O)ccc1O [Compound 89]
Total Evaluation: 15
Proteinuria 5th day: ++
Proteinuria 10th day: ++
Serum Parameter BUN (blood urea nitrogen): +
Serum Parameter S-Ch (serum cholesterol): ++
Serum Parameter S-Cr (serum creatinine): -

O=C(/C=C/c1cccnc1)NCc1cccc(O)c1 [Compound 90]
Total Evaluation: 17
Proteinuria 5th day: ++
Proteinuria 10th day: +++
Serum Parameter BUN (blood urea nitrogen): +
Serum Parameter S-Ch (serum cholesterol): -
Serum Parameter S-Cr (serum creatinine): +

O=C(/C=C/c1cccnc1)NCCc1ccc(O)c(O)c1 [Compound 91]
Total Evaluation: 14
Proteinuria 5th day: +
Proteinuria 10th day: +++
Serum Parameter BUN (blood urea nitrogen): -
Serum Parameter S-Ch (serum cholesterol): ++
Serum Parameter S-Cr (serum creatinine): -

O=C(/C=C(/c1ccccc1)c1cccnc1)NCCc1cccc(O)c1 [Compound 93]
Total Evaluation: 8
Proteinuria 5th day: -
Proteinuria 10th day: -
Serum Parameter BUN (blood urea nitrogen): +++
Serum Parameter S-Ch (serum cholesterol): ++
Serum Parameter S-Cr (serum creatinine): +++

CCOC(=O)COc1ccc(CN(C)C(=O)/C=C/c2cccnc2)cc1 [Compound 95]
Total Evaluation: 9
Proteinuria 5th day: +
Proteinuria 10th day: +
Serum Parameter BUN (blood urea nitrogen): ++
Serum Parameter S-Ch (serum cholesterol): +
Serum Parameter S-Cr (serum creatinine): -

CCOC(=O)COc1cccc(CCNC(=O)/C=C/c2cccnc2)c1 [Compound 100]
Total Evaluation: 6
Proteinuria 5th day: -
Proteinuria 10th day: +
Serum Parameter BUN (blood urea nitrogen): +
Serum Parameter S-Ch (serum cholesterol): +
Serum Parameter S-Cr (serum creatinine): +

CCOC(=O)COc1ccc(CCNC(=O)/C=C/c2cccnc2)cc1 [Compound 101]
Total Evaluation: 8
Proteinuria 5th day: -
Proteinuria 10th day: ++
Serum Parameter BUN (blood urea nitrogen): -
Serum Parameter S-Ch (serum cholesterol): -
Serum Parameter S-Cr (serum creatinine): ++

COC(=O)COc1ccccc1CCNC(=O)/C=C/c1cccnc1 [Compound 102]
Total Evaluation: 9
Proteinuria 5th day: +
Proteinuria 10th day: ++
Serum Parameter BUN (blood urea nitrogen): -
Serum Parameter S-Ch (serum cholesterol): -
Serum Parameter S-Cr (serum creatinine): -

CNC(=O)COc1cccc(CCNC(=O)/C=C/c2cccnc2)c1 [Compound 114, (E)-N-[3-[(methyl-carbamoyl)methoxy]phenethyl]-3-(3-pyridyl)-2-propenoic acid amide]
Total Evaluation: 24
Proteinuria 5th day: +++
Proteinuria 10th day: +++
Serum Parameter BUN (blood urea nitrogen): ++
Serum Parameter S-Ch (serum cholesterol): +++
Serum Parameter S-Cr (serum creatinine): +

NC(=O)COc1cccc(CCNC(=O)/C=C/c2cccnc2)c1 [Compound 115]
Total Evaluation: 10
Proteinuria 5th day: -
Proteinuria 10th day: +
Serum Parameter BUN (blood urea nitrogen): ++
Serum Parameter S-Ch (serum cholesterol): ++
Serum Parameter S-Cr (serum creatinine): +++
